Test results from patent US5591891A, “N-[Mercaptoacyl (amino acid or peptide ) ] compounds and S-lipophiIic aliphatic carbonyl derivatives thereof as antihypertensives” (Institut National de la Sante et de la Recherche Medicale …, priority 1994, dated 1997).

What was measured:
NEP [1] = target: T1, NEP (Rattus norvegicus, UniProt P07861); conditions: aids in reducing blood pressure; cited from earlier work
T1 construct: thereby aids in reducing blood pressure in the rat; host or cells: rat, in vivo
T1 sequence (P07861 1-750): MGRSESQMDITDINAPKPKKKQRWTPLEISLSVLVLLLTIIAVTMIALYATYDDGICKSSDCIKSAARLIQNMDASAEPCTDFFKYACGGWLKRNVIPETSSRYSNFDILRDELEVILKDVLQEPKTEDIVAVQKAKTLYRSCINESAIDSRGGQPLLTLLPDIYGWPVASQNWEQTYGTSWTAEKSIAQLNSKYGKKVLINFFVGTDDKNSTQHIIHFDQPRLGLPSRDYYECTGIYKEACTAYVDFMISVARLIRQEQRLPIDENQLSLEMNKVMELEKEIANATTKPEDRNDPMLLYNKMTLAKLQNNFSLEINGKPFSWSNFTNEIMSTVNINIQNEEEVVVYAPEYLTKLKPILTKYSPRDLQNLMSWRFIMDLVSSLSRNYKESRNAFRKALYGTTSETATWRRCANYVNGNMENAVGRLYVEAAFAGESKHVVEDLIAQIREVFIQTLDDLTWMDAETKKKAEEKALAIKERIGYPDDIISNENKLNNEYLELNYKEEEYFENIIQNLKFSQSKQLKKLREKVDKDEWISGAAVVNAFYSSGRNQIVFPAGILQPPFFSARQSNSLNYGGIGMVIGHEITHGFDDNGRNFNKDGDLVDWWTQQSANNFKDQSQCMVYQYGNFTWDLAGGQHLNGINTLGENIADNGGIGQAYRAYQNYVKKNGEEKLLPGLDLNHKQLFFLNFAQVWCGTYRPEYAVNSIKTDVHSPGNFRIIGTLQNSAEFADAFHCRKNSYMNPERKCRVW

ACE = target: T2, ACE (Mus musculus, UniProt P09470); test: In vivo inhibition of ACE in mouse after oral administration ([3H]Trandaloprilate binding); conditions: oral 2.6×10^-5 mole/kg, mean of three determinations
T2 construct: from tissue; host or cells: mouse tissue in vivo
T2 sequence (P09470 35-1312): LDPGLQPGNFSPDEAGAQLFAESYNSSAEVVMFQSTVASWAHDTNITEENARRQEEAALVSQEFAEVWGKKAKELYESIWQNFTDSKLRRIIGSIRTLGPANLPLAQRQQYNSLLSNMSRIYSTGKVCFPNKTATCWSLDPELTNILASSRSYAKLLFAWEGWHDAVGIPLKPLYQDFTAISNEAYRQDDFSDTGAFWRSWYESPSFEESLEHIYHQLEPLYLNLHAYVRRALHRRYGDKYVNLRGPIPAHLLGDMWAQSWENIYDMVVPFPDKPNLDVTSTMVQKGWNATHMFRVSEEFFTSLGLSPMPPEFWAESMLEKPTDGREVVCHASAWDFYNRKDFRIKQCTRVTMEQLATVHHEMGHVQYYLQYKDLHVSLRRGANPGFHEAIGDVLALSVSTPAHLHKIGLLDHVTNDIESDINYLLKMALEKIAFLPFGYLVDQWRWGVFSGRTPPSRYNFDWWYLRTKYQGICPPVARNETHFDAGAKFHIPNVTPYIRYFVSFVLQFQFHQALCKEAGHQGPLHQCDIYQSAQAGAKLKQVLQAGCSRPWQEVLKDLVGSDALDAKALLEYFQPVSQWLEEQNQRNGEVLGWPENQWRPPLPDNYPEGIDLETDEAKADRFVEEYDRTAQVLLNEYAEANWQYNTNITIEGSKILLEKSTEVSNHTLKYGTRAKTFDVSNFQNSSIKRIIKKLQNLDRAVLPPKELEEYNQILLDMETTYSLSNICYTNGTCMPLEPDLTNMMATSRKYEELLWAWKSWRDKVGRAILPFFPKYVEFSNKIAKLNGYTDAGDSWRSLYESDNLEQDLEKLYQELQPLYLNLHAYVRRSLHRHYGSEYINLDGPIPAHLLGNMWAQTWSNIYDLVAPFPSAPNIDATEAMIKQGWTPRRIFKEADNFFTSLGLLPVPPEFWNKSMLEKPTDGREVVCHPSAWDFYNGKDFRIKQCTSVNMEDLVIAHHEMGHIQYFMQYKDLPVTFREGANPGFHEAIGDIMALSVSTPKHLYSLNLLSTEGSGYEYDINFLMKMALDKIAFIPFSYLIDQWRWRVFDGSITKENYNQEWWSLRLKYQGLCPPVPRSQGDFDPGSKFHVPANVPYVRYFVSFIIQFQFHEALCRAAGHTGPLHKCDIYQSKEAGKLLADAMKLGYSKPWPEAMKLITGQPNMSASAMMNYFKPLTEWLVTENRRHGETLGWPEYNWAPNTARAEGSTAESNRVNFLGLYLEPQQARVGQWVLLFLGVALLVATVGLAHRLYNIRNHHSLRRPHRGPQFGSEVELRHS
From the text: (§1) [S,S,S]-N-[2-Adamantoylthiomethyl-1-oxo-3-phenylbutyl]alanine, a diastereomeric mixture of N-[2-acetylthiomethyl-1-oxo-3-phenylbutyl]alanine (four diastereomers) and a control solution of saline are orally administered at a concentration of 2.6×10^-5 mole/kg) in mice at t=o.
(§2) The inhibition of NEP in the kidney is expressed as the difference (in %) between specific [^3 H]HACBOGly binding in the absence of inhibitor (controls injected with saline) and in the presence of inhibitor. The inhibition values in Table V are the mean value of three determinations.
The protocol in Example 91 is used also to determine […] inhibition except for the following: the selective tritiated ACE inhibitor is [^3 H]Trandaloprilate (0.5 μCi); and the non-specific binding is determined by the co-administration of [^3 H]Trandaloprilate with 1000 eq. of captopril.

NEP [2] = target: T3, NEP (Mus musculus, UniProt Q61391); test: In vivo inhibition of NEP in mouse kidney after oral administration ([3H]HACBOGly binding); conditions: oral 2.6×10^-5 mole/kg, mean of three determinations
T3 construct: the kidney is rapidly set apart and homogenized at 4° C. in a Tris HCl buffer; from tissue; host or cells: mouse kidney (in vivo, then homogenate)
T3 sequence (Q61391 1-750): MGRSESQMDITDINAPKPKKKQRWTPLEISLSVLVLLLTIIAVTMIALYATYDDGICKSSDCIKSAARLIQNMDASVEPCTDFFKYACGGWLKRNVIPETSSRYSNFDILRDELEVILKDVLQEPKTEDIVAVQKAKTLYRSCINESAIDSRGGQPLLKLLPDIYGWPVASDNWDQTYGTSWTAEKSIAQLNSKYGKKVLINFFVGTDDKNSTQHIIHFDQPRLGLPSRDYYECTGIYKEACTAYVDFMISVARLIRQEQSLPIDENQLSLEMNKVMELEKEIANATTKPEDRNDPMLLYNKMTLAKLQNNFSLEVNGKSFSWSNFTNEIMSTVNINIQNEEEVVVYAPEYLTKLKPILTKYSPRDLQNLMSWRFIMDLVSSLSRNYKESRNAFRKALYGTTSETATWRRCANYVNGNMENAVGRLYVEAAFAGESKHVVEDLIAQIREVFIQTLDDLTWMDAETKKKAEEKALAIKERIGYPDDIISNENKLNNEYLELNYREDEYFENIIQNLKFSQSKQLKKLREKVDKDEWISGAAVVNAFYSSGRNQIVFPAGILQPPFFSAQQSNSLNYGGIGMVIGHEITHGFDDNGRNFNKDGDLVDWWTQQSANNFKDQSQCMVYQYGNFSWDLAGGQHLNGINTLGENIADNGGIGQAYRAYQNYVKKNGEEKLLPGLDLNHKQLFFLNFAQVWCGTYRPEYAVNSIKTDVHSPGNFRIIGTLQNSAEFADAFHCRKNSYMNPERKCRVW
From the text: as §1, §2

For `O=C(O)CNC(=O)C(CS)Cc1ccccc1` (racemic) [Thiorphan, N-(2-mercapto-methyl-3-phenyl-1-oxopropyl)glycine], the “half-life of circulating auricular natriuretic peptide” value (NEP [1]) is listed as “capable of augmenting the half-life of circulating auricular natriuretic peptide”.

For `CC(=O)SCC(C(=O)N[C@@H](C)C(=O)O)C(C)c1ccccc1` (stereo partly drawn) [91(B), N-[2-acetylthiomethyl-1-oxo-3-phenylbutyl]alanine], the “% Inhibition ACE” value (ACE; time 30 min) was 30%, the “% Inhibition ACE” value (ACE; time 240 min) was 15% and the “% Inhibition NEP” value (NEP [2]; time 30 min) was 65%. The “% Inhibition NEP” value (NEP [2]; time 240 min) was 45%.

In the case of `C[C@H](NC(=O)[C@@H](CSC(=O)C12CC3CC(CC(C3)C1)C2)[C@H](C)c1ccccc1)C(=O)O` [91(A), [S,S,S]--N-[2-adamantoylthiomethyl-1-oxo-3-phenylbutyl]alanine], the “% Inhibition ACE” value (ACE; time 30 min) is reported as 75%, the “% Inhibition ACE” value (ACE; time 240 min) is reported as 30% and the “% Inhibition NEP” value (NEP [2]; time 30 min) is reported as 85%. The “% Inhibition NEP” value (NEP [2]; time 240 min) was 70%.
